Reference: patent publication EP0105732A2, “Histamine H2 receptor antagonists of the benzisothiazole amino and benzthiadiazine amino series” (BEECHAM GROUP PLC, priority 1982, dated 1984)
Blank lines part the entries; values can stand above or below the compound they belong to.

How the values were obtained:
histamine H2-receptor = molecular target: T1, histamine H2-receptor (Cavia porcellus, UniProt P47747); experiment: Guinea-pig isolated atria (antagonism of histamine positive chronotropic response); format: cell-based
T1 construct: The atria were dissected free and mounted in a jacketed 5 ml capacity tissue bath; from tissue; host or cells: guinea-pig isolated atria
T1 sequence (P47747 whole entry): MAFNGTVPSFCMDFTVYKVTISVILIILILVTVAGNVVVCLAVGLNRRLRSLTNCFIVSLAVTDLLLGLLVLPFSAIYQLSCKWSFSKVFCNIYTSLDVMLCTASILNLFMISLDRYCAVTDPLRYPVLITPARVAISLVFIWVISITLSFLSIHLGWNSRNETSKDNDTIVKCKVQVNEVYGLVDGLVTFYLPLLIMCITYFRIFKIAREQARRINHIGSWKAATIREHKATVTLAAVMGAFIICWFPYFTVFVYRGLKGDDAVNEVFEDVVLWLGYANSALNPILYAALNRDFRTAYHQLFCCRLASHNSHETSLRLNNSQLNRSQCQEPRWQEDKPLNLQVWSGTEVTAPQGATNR
Method: This test is designed to specifically detect histamine H2-receptor antagonists. Guinea-pigs of either sex, weighing between 250 and 500 g, were killed by cervical dislocation and exsanguination. The heart was removed and placed in cold McEwens solution. The atria were dissected free and mounted in a jacketed 5 ml capacity tissue bath containing McEwens solution maintained at 32 °C and gassed with a 95% oxygen, 5% carbon dioxide gas mixture. Atrial beating was detected by an auxotonic lever and from thence recorded on a Devices MX2 hot wire pen recorder. Atrial rate was derived from the amplified force signal using a Devices Instantaneous Ratemeter and recorded on the MX2 pen recorder. […] To avoid disruption of the tissue by repeated washing, responses to cumulative concentrations of histamine were obtained in the absence (control) and then presence of various concentrations of test compounds. The ability to antagonise histamine mediated positive chronotropic responses of this tissue is believed to be specific for H2-receptor antagonists. Such activity was assessed by examining the ability of test compounds to shift to the right the plotted concentration/response curves to histamine.

gastric acid secretion = experiment: perfused rat stomach preparation (histamine-stimulated acid secretion, anaesthetised rat); format: in vivo; conditions: bolus intravenous, maximal reduction in hydrogen-ion concentration as percentage of control, histamine infusion; for inhibition in vivo at 0.2 µmol/kg: dose 0.2 µmole/kg; for inhibition in vivo at 1 µmol/kg: dose 1 µmole/kg; for inhibition in vivo at 0.5 µmol/kg: dose 0.5 µmole/kg; for inhibition in vivo at 0.1 µmol/kg: dose 0.1 µmole/kg
Method: The ability of the compounds of the invention to modify the pH of gastric acid secretion was investigated as follows:
The modified (1) perfused stomach preparation (2) of the urethane (25% solution) anaesthetised rat, maintained at 37°C, allows the continuous measurement of pH during basal and stimulated acid secretion.
The lumen of the stomach of male Wistar rats (approximately 200 g bodyweight) was perfused, via a cannula designed to reduce the dead space of the stomach, with 5% glucose solution (37°C) at the rate of 3 ml/min. The perfusate was forced over the surface of the secretory mucosa only, the antrum being excluded. The effluent then passed over a microflow-type glass pH eletrode via a collecting funnel situated in the non- glandular forestomach.
The secretagogue histamine was administered as a constant intravenous infusion to produce a steady rate of acid secretion. Test compounds were administered in solution as bolus intravenous injections and any effect on the pH of the perfusate noted. The perfusate pH was recorded on a potentiometric recorder and anti-secretory responses were measured in terms of the maximal reduction in hydrogen-ion concentration expressed as a percentage of the control concentration.

[1] = Concentration 7.5 x 10^-8 Molar, 0.075 µM
[2] = Concentration 5 x 10^-7 Molar, 0.5 µM
[3] = Concentration 2.5 x 10^-7 Molar, 0.25 µM

SMILES: CN(C)Cc1ccc(CSCCNC2=NS(=O)(=O)c3ccccc32)o1 [Example 3, N-[2-(5-dimethylaminomethylfuran-2-ylmethylthio)ethyl]-1,2-benzoisothiazole-3-amine-l,1-dioxide]
Activity (Decrease in Histamine Potency) (histamine H2-receptor; [2]): Active
inhibition in vivo at 1 µmol/kg (gastric acid secretion): 100%

SMILES: CN(C)Cc1ccc(CSCCNC2=NS(=O)(=O)c3ccc([N+](=O)[O-])cc32)o1 [Example 5, N-[2-(5-dimethylaminomethylfuran-2-ylmethylthio)ethyl] 5-nitro-1,2-benzoisothizaole-3-amine-1,1-dioxide]
inhibition in vivo at 2 µmol/kg (gastric acid secretion; dose 2 µmole/kg): 80%

SMILES: CN(C)Cc1ccc(CSCCNC2=NS(=O)(=O)c3c2cccc3[N+](=O)[O-])o1 [Example 7, N-2-(5-dimethylamihomethylfuran-2-ylmethylthioethyl] -7-nitro-1,2-benzoisothizaole-3-amine-1,1-dioxide]
inhibition in vivo at 0.5 µmol/kg (gastric acid secretion): 68%

SMILES: CN(C)Cc1ccc(CSCCNC2=NS(=O)(=O)c3cc(S(=O)(=O)N(C)C)ccc32)o1 [Example 9, N-[2-(5-Dimethylaminomethylfuran-2-ylmethylthio)ethyl] -6-dimethylsulphamoyl-1,2-benzoisothizaole-3-amine-1,1-dioxide]
inhibition in vivo at 0.1 µmol/kg (gastric acid secretion): 89%

SMILES: O=S1(=O)N=C(NCCCOc2cccc(CN3CCCCC3)c2)c2ccccc21 [Example 10, N-[3-(3-piperid-1-ylmethylphenoxy)propyl]-1,2-henzoiso-thiazole-3-amine-1,1-dioxide]
Activity (Decrease in Histamine Potency) (histamine H2-receptor; [3]): Active
inhibition in vivo at 0.5 µmol/kg (gastric acid secretion): 100%

SMILES: CN(C)Cc1cccc(OCCCNC2=NS(=O)(=O)c3ccccc32)c1 [Example 12, N-[3-(3-dimethylaminomethylphenoxy)propyl]-1,2-benzoiso-thiazole-3-amine-1,1-dioxide]
Activity (Decrease in Histamine Potency) (histamine H2-receptor; Concentration 1 x 10^-6 Molar): Active
inhibition in vivo at 0.5 µmol/kg (gastric acid secretion): 94%

SMILES: N=C(N)Nc1nc(CSCCNC2=NS(=O)(=O)c3cccc([N+](=O)[O-])c32)cs1 [Example 13, N-[2-(2-guanidinothiazol-4-ylmethylthio)ethyl]-4-nitro-1,2-benzoisothiazole-3-amine-1,1-dioxide]
Activity (Decrease in Histamine Potency) (histamine H2-receptor; Concentration 1 x 10^-6 Molar): Active

SMILES: CN(C)Cc1ccc(CSCCNC2=NS(=O)(=O)c3cc(N)ccc32)o1 [Example 14, N^3-[2-(5-dimethylaminomethylfuran-2-ylmethylthio)ethyl]-1,2-benzoisothiazole-3,6-diamine-1,1-dioxide]
Activity (Decrease in Histamine Potency) (histamine H2-receptor; [2]): Active
inhibition in vivo at 0.2 µmol/kg (gastric acid secretion): 60%

SMILES: CN(C)Cc1ccc(CSCCNC2=NS(=O)(=O)c3c(N)cccc32)o1 [Example 15, N^3-[2-(5-dimethylaminomethylfuran-2-lmethylthio)ethyl]-1,2-benzoisothiazole-3,7-diamine-1,1dioxide]
inhibition in vivo at 0.4 µmol/kg (gastric acid secretion; dose 0.4 µmole/kg): 60%

SMILES: NC(N)=Nc1nc(CSCCNC2=NS(=O)(=O)c3cccc(N)c32)cs1 [Example 20, N^3-[2-('2-guanidinothiazole-4-ylmethylthio)ethyl]-1,2-benzoisothiazole-3,4-diamine-1,1-dixide]
Activity (Decrease in Histamine Potency) (histamine H2-receptor; [3]): Active
inhibition in vivo at 0.2 µmol/kg (gastric acid secretion): 100%

SMILES: CN(C)Cc1ccc(CSCCNC2=Nc3ccccc3S(=O)(=O)N2)o1 [Example 39, N-[2-({5-Dimethylaminomethylfuran-2-yl)methylthio)ethyl] 1,2,4-benzothiadiazine-3-amine-1,1-dioxide]
Activity (Decrease in Histamine Potency) (histamine H2-receptor; Concentration 1 x 10^-6 Molar): Active
inhibition in vivo at 0.5 µmol/kg (gastric acid secretion): 78%

SMILES: O=S1(=O)NC(NCCCOc2cccc(CN3CCCCC3)c2)=Nc2ccccc21 [Example 40, N-[3-(3-{1-piperidylmethyl}phenoxy)propyl]-1,2,4-benzothia-diazine-3-amine-1,1-dioxide]
inhibition in vivo at 0.5 µmol/kg (gastric acid secretion): 94%

The next lines start with results.

Activity (Decrease in Histamine Potency) (histamine H2-receptor; Concentration 7.5 x 10^-7 Molar, 0.75 µM): Active
SMILES: CN(C)Cc1ccc(CSCCNC2=NS(=O)(=O)c3cccc([N+](=O)[O-])c32)o1 [Example 1, N-[2-(5-dimethylaminomethylfuran-2-ylmethylthio)ethyl]4-nitro-1,2-benzoisothiazole-3-amine-1,1-dioxide]
inhibition in vivo at 0.2 µmol/kg (gastric acid secretion): 87%

Activity (Decrease in Histamine Potency) (histamine H2-receptor; [1]): Active
SMILES: CN(C)Cc1ccc(CSCCNC2=NS(=O)(=O)c3cccc(N)c32)o1 [Example 2, N^3-[2-(5-dimethylaminomethylfuran-2-ylmethylthio)ethyl]1,2-benzoisothiazole-3,4-diamine-1,1-dioxide]
inhibition in vivo at 0.2 µmol/kg (gastric acid secretion): 100%

Activity (Decrease in Histamine Potency) (histamine H2-receptor; [2]): Active
SMILES: CN(C)Cc1ccc(CSCCNC2=NS(=O)(=O)c3cc([N+](=O)[O-])ccc32)o1 [Example 6]
inhibition in vivo at 1 µmol/kg (gastric acid secretion): 75%

Activity (Decrease in Histamine Potency) (histamine H2-receptor; Concentration 1 x 10^-5 Molar, 10 µM): Active
SMILES: CN(C)Cc1ccc(CSCCNC2=NS(=O)(=O)c3cc(Cl)ccc32)o1 [Example 8, N-[2-(5-dimethylaminomethylfuran-2-ylmethylthio)ethyl]-6-chloro-1,2benzoisothiazole-3-amine-1,1-dioxide]
inhibition in vivo at 5 µmol/kg (gastric acid secretion; dose 5 µmole/kg): 75%

Activity (Decrease in Histamine Potency) (histamine H2-receptor; Concentration 1 x 10^-7 Molar, 0.1 µM): Active
SMILES: O=[N+]([O-])c1cccc2c1C(NCCCOc1cccc(CN3CCCCC3)c1)=NS2(=O)=O [Example 11, N-[3-(3-piperid-1-ylmethylphenoxy)propyl]-4-nitro-1,2-benzoisothiazole-3-amine-1,1-dioxide]
inhibition in vivo at 0.5 µmol/kg (gastric acid secretion): 100%

Activity (Decrease in Histamine Potency) (histamine H2-receptor; [1]): Active
SMILES: Nc1cccc2c1C(NCCCOc1cccc(CN3CCCCC3)c1)=NS2(=O)=O [Example 16, N^3-[3-(3-piperid-1-ylmethylphenoxy)propyl]-1,2-benzoiso-thiazole-3,4-diamine-1,1-dioxide]
inhibition in vivo at 0.1 µmol/kg (gastric acid secretion): 100%
